In patent US8716279B2, “Pharmaceutical compositions of clonazepam and method of use thereof” (Jazz Pharmaceuticals, Inc., priority 2006, dated 2014):
≈ marks a conversion by molar mass, not a printed value.

How the values were obtained:
[1] = Drug recovery, degradation and binding to nasal sheep mucosa; assay type: in vitro ADME
Protocol: (i) Drug recovery, degradation and binding to nasal sheep mucosa: The effect of drug recovery, degradation and binding to sheep nasal mucosa was determined. Briefly, a known surface area (approx. 1 cm^2) of sheep nasal mucosa was added into a glass vial containing a known concentration (10 μg/mL) of each drug prepared in the receiver fluid (10% ethanol in pH 6 buffer). The content of the vial was allowed to equilibrate at 37° C. over a period of 48 h. At 24 h intervals, a sample was removed and assayed via HPLC. The percentage of drug recovered was calculated using Equation 4: % drug recovered=(drug concentration at t=Y/drug concentration at t=Z)×100 (Equation 4)
where, Y=specific time point at 37° C. (in the presence of nasal sheep mucosa); and Z=specific time point at 37° C. (in the absence of nasal sheep mucosa).
In addition to the stability against heat degradation, the effect of drug binding or degradation in the presence of nasal sheep mucosa was also determined (Table 6).

[2] = Solubility of clonazepam in neat solvents; settings: neat PEG 300
Protocol: The solubility of clonazepam in a number of neat solvents was determined using standard methods.

[3] = Solubility of clonazepam in binary mixtures of matrices; settings: binary mixture with glycofurol, inferred from FIG. 2
Protocol: Further, the solubility of clonazepam in binary mixtures of Transcutol® (TC), triacetin (TA), glycofurol (GF) and propylene glycol (PG) was evaluated. Solubility limits of clonazepam were determined for the following formulations:
Excess drug (50 mg) was capped with about 500 μL of the solvent matrix in a 1.5 mL microfuge tube and the solution was mixed on a vortex shaker for several minutes. Thereafter, the solution was placed in an ultrasonic bath at 25° C. for 45 minutes. The temperature was regulated with a thermometer and controlled by adding ice into the bath. After 15 minutes of standing, the solutions were centrifuged at 3,000×g for 30 minutes. Solutions were then stored for 16 hours at 25° C. in an ICH cabinet and protected from light.

[4] = qEEG mapping; assay type: in vivo; settings: human
Protocol: E. Electroencephalography (EEG) Methods: Drug and placebo are administered, for example, at a five-minute intravenous (i.v.) infusion. During 15 minutes following the beginning of the administration EEG is registered. The EEG is registered again at 30, 60, 90, 120, and 180 minutes. Subjects are typically in a quiet laboratory (soundproof and electrically shielded room). During acquisition of EEG measurements subjects recline in an armchair. Usually twenty-eight EEG leads (issued, for example, from a 10-20 system; Jasper, H. H., et al., “Studies of clinical and electrical responses to deep temporal stimulation in men with some considerations of functional anatomy,” Res Publ Assoc Res Nerv Ment Dis. 36:316-34 (1958); Japser, H. H., “Progress and problems in brain research,” J Mt Sinai Hosp N Y. 25(3):244-53 (1958)) are used for recording. An ear linked reference, as well as four artifact channels (detection of eye movement, muscle activity, and other potentials for artifacts) may be used. Silver-plated disc electrodes are attached to subject's scalp, for example, with quick drying collondion. Impedance (for example, of 2000-5000 ohms) is checked before each recording session. A calibration signal is used, before each subject is tested, in order to adjust all the recorded leads thus allowing the construction of EEG or event-related-potentials (ERP) maps. EEGs are taken under resting recording conditions (i.e., subjects are asked to relax with their eyes closed). An example of data analysis used is the method of Dago, et al. (Dago, K T, et al., “Statistical Decision Tree: a tool for studying pharmaco-EEG effects of CNS-active drugs,” Neuropsychobiology, 29(2):91-6 (1994)) which involves a statistical comparison of data obtained during active treatment versus placebo treatment. Typically, topographic mapping of mean EEG parameters and statistical evaluation of treatment effects is carried out in a selected number of healthy volunteers.
EEG profiles are determined for patients dosed intranasally with clonazepam compositions of the present invention. […]

[5] = Solubility of clonazepam in glycol ethers at 25° C.
Protocol: 10 mg of clonazepam was weighed into glass vials used in the Pfeiffer mono-dose spray system (Pfeiffer of America, Princeton, N.J.). Four samples of each of four solvents were prepared as follows. 130-μL of each solvent was pipetted into the vial, which was then stoppered with a black chlorobutyl rubber stopper.
The vials were removed from the chamber, placed inside polyethylene centrifuge vials, and centrifuged for 2 minutes at 5000 rpm. 10 μL of liquid was then sampled from each vial, accurately weighed, and diluted with 1 mL of acetonitrile. The drug concentration was analyzed by UV using an Agilent HPLC system with no column, 10 μL injection volume, acetonitrile mobile phase, 0.3 mL/min and UV detection at 350 nm.

Compound: O=C1CN=C(c2ccccc2Cl)c2cc([N+](=O)[O-])ccc2N1 [Clonazepam, 5-(2-chlorophenyl)-1,3-dihydro-7-nitro-2H-1,4-benzodiazepin-2-one]
- degree of binding or degradation in the presence of nasal sheep mucosa ([1]; 37° C.): < 10%
- drug recovered in the presence of nasal sheep mucosa ([1]; 37° C. over 48 h): greater than 95%
- Solubility [2]: 37.0 mg/mL (≈ 117 mM)
- solubility in the 50:50 mixture [3]: about 36.4 mg/mL
- EEG changes from baseline ([4]; all three routes): increased delta and beta activity and decreased alpha and theta activity
- beta-1 relative power, time course of effects (post-hoc analysis) ([4]; intranasal administration): magnitude of effect similar to that from oral administration
- time after dosing at which the EEG pattern was noted ([4]; oral administration): approximately 2 hours
- Solubilities (mg/mL) of Clonazepam in Solvent/Water Solutions ([5]; 1,2-dimethyxoethane, 100% solvent / 0% water, 25° C. (neat solvent value from Example 11, included for reference)): 39.3 mg/mL
- Solubility ([5]; in 1,2-dimethyxoethane, 25 C.): 39.3 mg/mL (≈ 124 mM)
